Source: PubChem BioAssay AID1918930 (Molecular Pharmacology Branch, DTP, NCI, 2023)

These molecules were tested on 233499-124-R-J3-PDC complex spheroid viability, % test/control (assay: Anticancer human tumor 233499-124-R-J3-PDC patient-derived colon adenocarcinoma cell line growth inhibition). Settings: second compound 3.16 µM; first compound 0.1 µM; hits give low values.
How it was run: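 Drug combinations with the LSD1 inhibitor iadademstat tested on tumor cells co-cultured as spheroids with endothelial cells and mesenchymal stem cells. Concentrations descended in half-log increments from clinical Cmax or 10 microM.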
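Note: spheroids exposed to agents for one week before readout.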

SMILES | viability, T/C
CC1(C)CCC(CN2CCN(c3ccc(C(=O)NS(=O)(=O)c4ccc(NCC5CCOCC5)c([N+](=O)[O-])c4)c(Oc4cnc5[nH]ccc5c4)c3)CC2)=C(c2ccc(Cl)cc2)C1 + NC1CC1c1ccc(-c2cccc(O)c2)cc1 | 97.1%
CC(C)CC(NC(=O)CNC(=O)c1cc(Cl)ccc1Cl)B1OC(=O)CC(CC(=O)O)(C(=O)O)O1 (centres undefined) + NC1CCC(NC2CC2c2ccccc2)CC1 | 3.85%
CC1COCCN1c1cc(-c2ccnn2C)c2ccnc(-c3ccn[nH]3)c2n1 (centres undefined) + NC1CC1c1ccc(-c2cccc(O)c2)cc1 | 42.7%
CC[C@@]1(O)C(=O)OCc2c1cc1n(c2=O)Cc2cc3c(CN(C)C)c(O)ccc3nc2-1 + NC1CC1c1ccc(-c2cccc(O)c2)cc1 | 94.1%

Same assay, conditions: second compound 3.16 µM; first compound 0.316 µM; hits give low values

SMILES | viability, T/C
CC(C)c1c(-c2ccccc2)nc2c(C#N)c[nH]n2c1=O + NC1CC1c1ccc(-c2cccc(O)c2)cc1 | 97.3%
CC1(C)CCC(CN2CCN(c3ccc(C(=O)NS(=O)(=O)c4ccc(NCC5CCOCC5)c([N+](=O)[O-])c4)c(Oc4cnc5[nH]ccc5c4)c3)CC2)=C(c2ccc(Cl)cc2)C1 + NC1CC1c1ccc(-c2cccc(O)c2)cc1 | 91.4%
CC1COCCN1c1cc(-c2ccnn2C)c2ccnc(-c3ccn[nH]3)c2n1 (centres undefined) + NC1CC1c1ccc(-c2cccc(O)c2)cc1 | 44.2%

Same assay, conditions: second compound 3.16 µM; first compound 1 µM; hits give low values

SMILES | viability, T/C
CC(C)c1c(-c2ccccc2)nc2c(C#N)c[nH]n2c1=O + NC1CC1c1ccc(-c2cccc(O)c2)cc1 | 98.9%
CC1(C)CCC(CN2CCN(c3ccc(C(=O)NS(=O)(=O)c4ccc(NCC5CCOCC5)c([N+](=O)[O-])c4)c(Oc4cnc5[nH]ccc5c4)c3)CC2)=C(c2ccc(Cl)cc2)C1 + NC1CC1c1ccc(-c2cccc(O)c2)cc1 | 99.3%
CC1COCCN1c1cc(-c2ccnn2C)c2ccnc(-c3ccn[nH]3)c2n1 (centres undefined) + NC1CC1c1ccc(-c2cccc(O)c2)cc1 | 82.1%

Same assay, conditions: second compound 3.16 µM; first compound 3.16 µM; hits give low values

SMILES | viability, T/C
CC(C)c1c(-c2ccccc2)nc2c(C#N)c[nH]n2c1=O + NC1CC1c1ccc(-c2cccc(O)c2)cc1 | 114%
CC1(C)CCC(CN2CCN(c3ccc(C(=O)NS(=O)(=O)c4ccc(NCC5CCOCC5)c([N+](=O)[O-])c4)c(Oc4cnc5[nH]ccc5c4)c3)CC2)=C(c2ccc(Cl)cc2)C1 + NC1CC1c1ccc(-c2cccc(O)c2)cc1 | 44.6%

Same assay, conditions: second compound 3.16 µM; first compound 10 µM; hits give low values

SMILES | viability, T/C
CC(C)c1c(-c2ccccc2)nc2c(C#N)c[nH]n2c1=O + NC1CC1c1ccc(-c2cccc(O)c2)cc1 | 109%
CC1(C)CCC(CN2CCN(c3ccc(C(=O)NS(=O)(=O)c4ccc(NCC5CCOCC5)c([N+](=O)[O-])c4)c(Oc4cnc5[nH]ccc5c4)c3)CC2)=C(c2ccc(Cl)cc2)C1 + NC1CC1c1ccc(-c2cccc(O)c2)cc1 | 0.57%

Same assay, conditions: second compound 10 µM; first compound 0.000316 µM; hits give low values

SMILES | viability, T/C
CC(C)CC(NC(=O)CNC(=O)c1cc(Cl)ccc1Cl)B1OC(=O)CC(CC(=O)O)(C(=O)O)O1 (centres undefined) + NC1CCC(NC2CC2c2ccccc2)CC1 | 81.8%
CC[C@@]1(O)C(=O)OCc2c1cc1n(c2=O)Cc2cc3c(CN(C)C)c(O)ccc3nc2-1 + NC1CC1c1ccc(-c2cccc(O)c2)cc1 | 77.7%

Same assay, conditions: second compound 10 µM; first compound 0.001 µM; hits give low values

SMILES | viability, T/C
CC(C)CC(NC(=O)CNC(=O)c1cc(Cl)ccc1Cl)B1OC(=O)CC(CC(=O)O)(C(=O)O)O1 (centres undefined) + NC1CCC(NC2CC2c2ccccc2)CC1 | 73.7%
CC[C@@]1(O)C(=O)OCc2c1cc1n(c2=O)Cc2cc3c(CN(C)C)c(O)ccc3nc2-1 + NC1CC1c1ccc(-c2cccc(O)c2)cc1 | 67.9%

Same assay, conditions: second compound 10 µM; first compound 0.00316 µM; hits give low values

SMILES | viability, T/C
CC(C)CC(NC(=O)CNC(=O)c1cc(Cl)ccc1Cl)B1OC(=O)CC(CC(=O)O)(C(=O)O)O1 (centres undefined) + NC1CCC(NC2CC2c2ccccc2)CC1 | 52.8%
CC1COCCN1c1cc(-c2ccnn2C)c2ccnc(-c3ccn[nH]3)c2n1 (centres undefined) + NC1CC1c1ccc(-c2cccc(O)c2)cc1 | 53.4%
CC[C@@]1(O)C(=O)OCc2c1cc1n(c2=O)Cc2cc3c(CN(C)C)c(O)ccc3nc2-1 + NC1CC1c1ccc(-c2cccc(O)c2)cc1 | 53.8%

Same assay, conditions: second compound 10 µM; first compound 0.01 µM; hits give low values

SMILES | viability, T/C
CC(C)CC(NC(=O)CNC(=O)c1cc(Cl)ccc1Cl)B1OC(=O)CC(CC(=O)O)(C(=O)O)O1 (centres undefined) + NC1CCC(NC2CC2c2ccccc2)CC1 | 6.15%
CC1COCCN1c1cc(-c2ccnn2C)c2ccnc(-c3ccn[nH]3)c2n1 (centres undefined) + NC1CC1c1ccc(-c2cccc(O)c2)cc1 | 42.1%
CC[C@@]1(O)C(=O)OCc2c1cc1n(c2=O)Cc2cc3c(CN(C)C)c(O)ccc3nc2-1 + NC1CC1c1ccc(-c2cccc(O)c2)cc1 | 53.6%

Same assay, conditions: second compound 10 µM; first compound 0.0316 µM; hits give low values

SMILES | viability, T/C
CC(C)c1c(-c2ccccc2)nc2c(C#N)c[nH]n2c1=O + NC1CC1c1ccc(-c2cccc(O)c2)cc1 | 76.1%
CC1(C)CCC(CN2CCN(c3ccc(C(=O)NS(=O)(=O)c4ccc(NCC5CCOCC5)c([N+](=O)[O-])c4)c(Oc4cnc5[nH]ccc5c4)c3)CC2)=C(c2ccc(Cl)cc2)C1 + NC1CC1c1ccc(-c2cccc(O)c2)cc1 | 76.7%
CC(C)CC(NC(=O)CNC(=O)c1cc(Cl)ccc1Cl)B1OC(=O)CC(CC(=O)O)(C(=O)O)O1 (centres undefined) + NC1CCC(NC2CC2c2ccccc2)CC1 | 0.14%
CC1COCCN1c1cc(-c2ccnn2C)c2ccnc(-c3ccn[nH]3)c2n1 (centres undefined) + NC1CC1c1ccc(-c2cccc(O)c2)cc1 | 32.7%
CC[C@@]1(O)C(=O)OCc2c1cc1n(c2=O)Cc2cc3c(CN(C)C)c(O)ccc3nc2-1 + NC1CC1c1ccc(-c2cccc(O)c2)cc1 | 58.7%

Same assay, conditions: second compound 10 µM; first compound 0.1 µM; hits give low values

SMILES | viability, T/C
CC(C)c1c(-c2ccccc2)nc2c(C#N)c[nH]n2c1=O + NC1CC1c1ccc(-c2cccc(O)c2)cc1 | 78%
CC1(C)CCC(CN2CCN(c3ccc(C(=O)NS(=O)(=O)c4ccc(NCC5CCOCC5)c([N+](=O)[O-])c4)c(Oc4cnc5[nH]ccc5c4)c3)CC2)=C(c2ccc(Cl)cc2)C1 + NC1CC1c1ccc(-c2cccc(O)c2)cc1 | 83.9%
CC(C)CC(NC(=O)CNC(=O)c1cc(Cl)ccc1Cl)B1OC(=O)CC(CC(=O)O)(C(=O)O)O1 (centres undefined) + NC1CCC(NC2CC2c2ccccc2)CC1 | 0.16%
CC1COCCN1c1cc(-c2ccnn2C)c2ccnc(-c3ccn[nH]3)c2n1 (centres undefined) + NC1CC1c1ccc(-c2cccc(O)c2)cc1 | 36.2%
CC[C@@]1(O)C(=O)OCc2c1cc1n(c2=O)Cc2cc3c(CN(C)C)c(O)ccc3nc2-1 + NC1CC1c1ccc(-c2cccc(O)c2)cc1 | 93.5%

Same assay, conditions: second compound 10 µM; first compound 0.316 µM; hits give low values

SMILES | viability, T/C
CC(C)c1c(-c2ccccc2)nc2c(C#N)c[nH]n2c1=O + NC1CC1c1ccc(-c2cccc(O)c2)cc1 | 93.3%
CC1(C)CCC(CN2CCN(c3ccc(C(=O)NS(=O)(=O)c4ccc(NCC5CCOCC5)c([N+](=O)[O-])c4)c(Oc4cnc5[nH]ccc5c4)c3)CC2)=C(c2ccc(Cl)cc2)C1 + NC1CC1c1ccc(-c2cccc(O)c2)cc1 | 72.9%
CC1COCCN1c1cc(-c2ccnn2C)c2ccnc(-c3ccn[nH]3)c2n1 (centres undefined) + NC1CC1c1ccc(-c2cccc(O)c2)cc1 | 32.9%

Same assay, conditions: second compound 10 µM; first compound 1 µM; hits give low values

SMILES | viability, T/C
CC(C)c1c(-c2ccccc2)nc2c(C#N)c[nH]n2c1=O + NC1CC1c1ccc(-c2cccc(O)c2)cc1 | 101%
CC1(C)CCC(CN2CCN(c3ccc(C(=O)NS(=O)(=O)c4ccc(NCC5CCOCC5)c([N+](=O)[O-])c4)c(Oc4cnc5[nH]ccc5c4)c3)CC2)=C(c2ccc(Cl)cc2)C1 + NC1CC1c1ccc(-c2cccc(O)c2)cc1 | 81.1%
CC1COCCN1c1cc(-c2ccnn2C)c2ccnc(-c3ccn[nH]3)c2n1 (centres undefined) + NC1CC1c1ccc(-c2cccc(O)c2)cc1 | 76.5%

Same assay, conditions: second compound 10 µM; first compound 3.16 µM; hits give low values

SMILES | viability, T/C
CC(C)c1c(-c2ccccc2)nc2c(C#N)c[nH]n2c1=O + NC1CC1c1ccc(-c2cccc(O)c2)cc1 | 109%
CC1(C)CCC(CN2CCN(c3ccc(C(=O)NS(=O)(=O)c4ccc(NCC5CCOCC5)c([N+](=O)[O-])c4)c(Oc4cnc5[nH]ccc5c4)c3)CC2)=C(c2ccc(Cl)cc2)C1 + NC1CC1c1ccc(-c2cccc(O)c2)cc1 | 38.5%

Same assay, conditions: second compound 10 µM; first compound 10 µM; hits give low values

SMILES | viability, T/C
CC(C)c1c(-c2ccccc2)nc2c(C#N)c[nH]n2c1=O + NC1CC1c1ccc(-c2cccc(O)c2)cc1 | 114%
CC1(C)CCC(CN2CCN(c3ccc(C(=O)NS(=O)(=O)c4ccc(NCC5CCOCC5)c([N+](=O)[O-])c4)c(Oc4cnc5[nH]ccc5c4)c3)CC2)=C(c2ccc(Cl)cc2)C1 + NC1CC1c1ccc(-c2cccc(O)c2)cc1 | 0.43%
